Experimental data from patent US10209236B2, “Cell analyzer system, cell analyzer program, and cell analyzing method” (Sony Corporation, priority 2012, dated 2019).

How the values were obtained:
Type in all cases: cell-based
[1] = system: neuron cells (iPS Academia Japan) that were differentiation of iPS cells; experiment: Fluorescence intensity vibration (Ca2+ imaging with Fluo8) of neuron cells, FFT power spectra; conditions: for spontaneous membrane potential vibration of the neural cells: confirmed by the vibration characteristics of the fluorescence intensity vibration
Protocol: Effects of GABA and L-Glu on the neuron cells and the neuron cell network were evaluated using the fluorescence intensity vibration. The GABA is a physiological active substance that gives inhibitory stimulation to the neuron cells. The L-Glu gives exciting stimulation.
Fluo8 (fluorescent labeling) used in Ca^2+ imaging was entrained in the neuron cells (iPS Academia Japan) that were differentiation of iPS cells. The GABA or the L-Glu was administered to incubation liquid. Fluorescence of the Fluo8 generated from each neuron cell was image-captured at 2 flame/sec for 1 minute to provide each cell image.
The fluorescence intensity vibration (vibration information) was extracted from each cell image, taking the image range including one neuron cell as the extraction range. FIG. 9(a) is a graph of fluorescence intensity vibration extracted from the cell image of the neuron cells to which the GABA is administered. FIG. 9(b) is a graph of fluorescence intensity vibration extracted from the cell image of the neuron cells to which the L-Glu is administered.
Then, the FFT analysis was applied to fluorescence intensity vibration to calculate power spectra (vibration characteristics). FIG. 10(a) is a graph of power spectrum calculated from the fluorescence intensity vibration ([…]) of the neuron cells to which the GABA is administered. FIG. 10(b) is a graph of power spectrum calculated from the fluorescence intensity vibration ([…]) of the neuron cells to which the L-Glu is administered.

[2] = system: neuron cells (iPS Academia Japan) that were differentiation of iPS cells; experiment: Motion vibration of neuron cells, FFT power spectra; conditions: for spontaneous membrane potential vibration of the neural cells: confirmed by the vibration characteristics of the motion vibration
Protocol: Effects of GABA and L-Glu administered on the neuron cells were evaluated. The GABA or the L-Glu was administered to incubation liquid of the neuron cells (iPS Academia Japan) that were differentiation of iPS cells. Each neuron cell was image-captured at 2 flame/sec for 1 minute to provide each cell image.
In each cell image, the motion vibration was extracted using the image range including one neuron cell as the extraction range. FIG. 23(a) is a graph of the motion vibration extracted from the cell image of the neural cells to which the GABA is administrated. FIG. 23(b) is a graph of the motion vibration extracted from the cell image of the neural cells to which the L-Glu is administrated.
Then, the FFT analysis was applied to the motion vibration to calculate power spectra. FIG. 24(a) is a graph of power spectrum calculated from the motion vibration (FIG. 23(a)) of the neuron cells to which the GABA is administered. FIG. 24(b) is a graph of power spectrum calculated from the motion vibration (FIG. 23(b)) of the neuron cells to which the L-Glu is administered.

[3] = system: neural cells derived from iPS cells where a sufficient neural cell network was formed; experiment: Evaluation of cytotoxicity by motion vibration; conditions: whole image as extraction range; 5 μm of memantine with 500 nM or 5000 nM of Aβ peptide; incubated for five days; FIG. 28
Protocol: Effects of a cytotoxic substance administered on the neuron cells were evaluated using the motion vibration of the cells. As a cytotoxic model, the cytotoxicity of Aβ peptide considered as a cause of the Alzheimer disease and a neuroprotective action of an anti-alzheimer's disease drug, i.e., memantine were evaluated. As the cytotoxicity of Aβ peptide, there are a synapse failure by acting on synapses and a cell failure entrained in the cells. The cell group of the neural cells derived from iPS cells where a sufficient neural cell network was formed was prepared. A predetermined amount of Aβ peptide or Aβ peptide and memantine was administered to each cell group to incubate for five days. After five days, the cell image of each cell group was captured to extract the motion vibration from the whole image and each cell as the extraction range and the vibration characteristics were calculated. FIGS. 27(a) to (f) are graphs of the vibration characteristics of the motion vibration extracted from the extraction range including the whole image. […] FIG. 28 is a graph of average values of the vibration power extracted from the motion vibration in each cell group shown in FIGS. 27(a) to (e) in each pixel included in the extraction range. […] On the other hand, when memantine was administered, the vibration power is not decreased. […]

[4] = extraction range including one neuron cell, compared with neuron cells to which the L-Glu is administered, FIGS. 10(a) and 10(b)
[5] = extraction range including one neuron cell, compared with neuron cells to which the L-Glu is administered, FIGS. 24(a) and 24(b)

SMILES | spontaneous membrane potential vibration of the neural cells [1] | amplitude of the fluorescence intensity vibration [1, 4] | frequency of the fluorescence intensity vibration [1, 4] | spontaneous membrane potential vibration of the neural cells [2] | amplitude of the motion vibration [2, 5] | frequency of the motion vibration [2, 5] | vibration power of the cell group (motion vibration, average values in each pixel) [3]
NCCCC(=O)O [GABA] | changed | greater | lower | changed | greater | lower | 
N[C@@H](CCC(=O)O)C(=O)O [L-Glu] | changed |  |  | changed |  |  | 
CC12CC3CC(C)(C1)CC(N)(C3)C2 [memantine] |  |  |  |  |  |  | not decreased
